Entries after “also recorded” stand apart in the source; their conditions may differ.
Key:
Format in all cases: cell-based, human
[1] = system: selected clones (05, 07, 11) and parental hESC; test: Drug resistance profile: proliferation rate by BrdU incorporation in the presence of chemotherapeutic reagents
Protocol: Drug resistance profiles of selected clones were determined for the common classes of chemotherapeutic reagents. Proliferation rate of the clones and parental hESC was measured in the presence of multiple concentrations of 10 different drugs using BrdU incorporation assay. Each drug has been tested in at least three independent experiments, each condition being done in triplicate. The approximate half maximal inhibitory concentration (IC50) was determined for each of the drugs tested. IC50 represents the concentration of a drug that is required for 50% inhibition in vitro.
Response of the selected clones to the following chemotherapeutic reagents was examined. The chemotherapeutic agents were chosen for their wide-spread use and variety with respect to their modes of action: 5-fluorouracil (5-FU), doxorubicin (Doxo), irinotecan (SN-38), taxol, etoposide (VP-16), carmustine (BCNU), methotrexate (MTX), cytarabine (AraC), temozolomide (MTIC) and chlorambucil (CLB). […] Proliferation rate was measured by BrdU incorporation at the end of the drug treatment. All samples were made in triplicates in each of the three independent experiments performed.

[2] = system: isogenic cloned cell lines derived from one hESC line; test: Resistance of the panel of isogenic cloned cell lines to common chemotherapeutic agents; conditions: panel of isogenic cloned cell lines with CSC phenotype
Description: Using one hESC line, a panel of isogenic cloned cell lines has already been generated and banked. […] High resolution karyotype (G-banding), proliferation rate (BrdU incorporation and doubling time), growth factor dependence and expression of CSC/SC markers such as Oct-4, Nanog, CD133, ABCG2, ABCG5 etc) have been examined and the stability of the expressed phenotypes was confirmed.

clones 07-B1 and 11-B19 = test: Drug resistance of BCNU-selected high-resistance clones; conditions: clones selected by increasing concentrations of BCNU; data not shown
Protocol: Two clones, 07 and 11 were exposed to increasing concentrations of BCNU. The surviving cells were cloned and a number of high-resistance clones two of which, 07-B1 and 11-B19 were isolated. Their drug resistance to BCNU and MTIC was tested.

[3] = system: clones 05, 07, 11, isogenic hESC control and isogenic cancer lines TMEC02, TMEC03; test: Salinomycin dose response measured by BrdU incorporation; conditions: clones 05 and 07 compared with clone 11, isogenic hESC control

O=c1[nH]cc(F)c(=O)[nH]1 [5-FU, 5-fluorouracil]
resistance of clone 07 ([1]; clone 07 compared with clone MEC-11): more resistant

O=NN(CCCl)C(=O)NCCCl [BCNU, carmustine]
resistance of transformed cell lines to the agent [2]: increased resistance | resistance of clones 07-B1 and 11-B19 relative to parental clones (clones 07-B1 and 11-B19): higher resistance than the parental clones

COc1cccc2c1C(=O)c1c(O)c3c(c(O)c1C2=O)C[C@@](O)(C(=O)CO)C[C@@H]3O[C@H]1C[C@H](N)[C@H](O)[C@H](C)O1 [doxorubicin]
resistance of transformed cell lines to the agent [2]: increased resistance

CO[C@@]12[C@H](COC(N)=O)C3=C(C(=O)C(C)=C(N)C3=O)N1C[C@@H]1N[C@@H]12 [mitomycin C]
effect on proliferation (positive control) ([1]; all cell lines, BrdU incorporation at end of drug treatment): induced growth arrest in all cell lines

CC(=O)O[C@H]1C(=O)[C@@]2(C)[C@H]([C@H](OC(=O)c3ccccc3)[C@]3(O)C[C@H](OC(=O)[C@H](O)[C@@H](NC(=O)c4ccccc4)c4ccccc4)C(C)=C1C3(C)C)[C@]1(OC(C)=O)CO[C@@H]1C[C@@H]2O [paclitaxel]
resistance of transformed cell lines to the agent [2]: increased resistance

CC[C@@H](C(=O)[C@@H](C)[C@@H](O)[C@H](C)[C@@H]1O[C@@H]([C@@H](CC)C(=O)O)CC[C@@H]1C)[C@H]1O[C@]2(C=C[C@@H](O)[C@]3(CC[C@@](C)([C@H]4CC[C@](O)(CC)[C@H](C)O4)O3)O2)[C@H](C)C[C@@H]1C [salinomycin]
effect of drug on proliferation of clones 05 and 07 [3]: most significantly affected; also recorded: significantly more affected

Reference: patent US20100162416A1, “Multi-stage stem cell carcinogenesis” (StemLifeLine, Inc., priority 2008, published 2010)
